From ChEMBL document CHEMBL4819154, “Discovery of quinuclidine modulators of cellular progranulin” (Bioorg Med Chem Lett, 2021)
Converted amounts (≈) assume the structure as drawn.

Legend:
[1] = Increase of PGRN level in mouse microglial BV-2 cell relative to control; type: functional
[2] = Aqueous solubility of compound in pH 7.4 PBS measured; type: physicochemical
[3] = Protein binding in mouse brain assessed as unbound fraction; type: ADME, tissue-based
[4] = Oral bioavailability in rat; type: ADME, organism-based; conditions: in vivo, dose 10 mg/kg
[5] = Half life in cynomolgus monkey hepatocytes; type: ADME, cell-based, Macaca fascicularis, Hepatocyte
[6] = Cmax in mouse; type: ADME, organism-based; conditions: in vivo
[7] = Volume of distribution at steady state in mouse; type: ADME, organism-based; conditions: in vivo, read-out: Vdss
[8] = Protein binding in mouse assessed as unbound fraction; type: ADME
[9] = Clearance in mouse; type: ADME, organism-based; conditions: in vivo
[10] = Half life in iv dosed rat; type: ADME, organism-based; conditions: in vivo
[11] = Unbound partition coefficient of the compound in mouse incubated for 8 hrs; type: ADME; conditions: brain, read-out: K(p,uu,brain)
[12] = Half life in human hepatocytes; type: ADME, cell-based, Hepatocyte
[13] = Oral bioavailability in mouse; type: ADME, organism-based; conditions: in vivo, dose 10 mg/kg
[14] = Protein binding in human assessed as unbound fraction; type: ADME
[15] = Protein binding in rat brain assessed as unbound fraction; type: ADME, tissue-based
[16] = Apparent permeability from apical to basolateral side in dog MDCK-MDR1 cells; type: ADME, cell-based, Canis lupus familiaris
[17] = Unbound partition coefficient of the compound in rat incubated for 8 hrs; type: ADME; conditions: brain, read-out: K(p,uu,brain)
[18] = Volume of distribution at steady state in rat; type: ADME; conditions: in vivo, read-out: Vdss
[19] = Protein binding in rat assessed as unbound fraction; type: ADME
[20] = Half life in rat hepatocytes; type: ADME, cell-based, Hepatocyte
[21] = Half life in iv dosed mouse; type: ADME, organism-based; conditions: in vivo
[22] = Intrinsic clearance in cynomolgus monkey hepatocytes; type: ADME, cell-based, Macaca fascicularis, Hepatocyte
[23] = Cmax in rat; type: ADME; conditions: in vivo
[24] = molecular target: Muscarinic acetylcholine receptor M3 (Homo sapiens, UniProt P20309); assay: Antagonist activity at muscarinic M3 receptor (unknown origin)
[25] = Clearance in rat; type: ADME; conditions: in vivo
[26] = Half life in po dosed rat; type: ADME, organism-based; conditions: in vivo
[27] = Half life in po dosed mouse; type: ADME, organism-based; conditions: in vivo
[28] = Intrinsic clearance in human hepatocytes; type: ADME, cell-based, Hepatocyte
[29] = Unbound partition coefficient of the compound in cynomolgus monkey incubated for 8 hrs; type: ADME, cell-free, Macaca fascicularis, Brain/Plasma; conditions: brain, read-out: K(p,uu,brain)
[30] = Protein binding in cynomolgus monkey assessed as unbound fraction; type: ADME, Macaca fascicularis
[31] = Half life in iv dosed cynomolgus monkey; type: ADME, organism-based, Macaca fascicularis; conditions: in vivo
[32] = Oral bioavailability in cynomolgus monkey; type: ADME, organism-based, Macaca fascicularis; conditions: in vivo, dose 10 mg/kg
[33] = Half life in po dosed cynomolgus monkey; type: ADME, organism-based, Macaca fascicularis; conditions: in vivo
[34] = Cmax in cynomolgus monkey; type: ADME, Macaca fascicularis; conditions: in vivo
[35] = Clearance in cynomolgus monkey; type: ADME, Macaca fascicularis; conditions: in vivo, dose 1 mg/kg
[36] = Volume of distribution at steady state in cynomolgus monkey; type: ADME, Macaca fascicularis; conditions: in vivo, read-out: Vdss

Chain of Muscarinic acetylcholine receptor M3 (P20309 whole entry): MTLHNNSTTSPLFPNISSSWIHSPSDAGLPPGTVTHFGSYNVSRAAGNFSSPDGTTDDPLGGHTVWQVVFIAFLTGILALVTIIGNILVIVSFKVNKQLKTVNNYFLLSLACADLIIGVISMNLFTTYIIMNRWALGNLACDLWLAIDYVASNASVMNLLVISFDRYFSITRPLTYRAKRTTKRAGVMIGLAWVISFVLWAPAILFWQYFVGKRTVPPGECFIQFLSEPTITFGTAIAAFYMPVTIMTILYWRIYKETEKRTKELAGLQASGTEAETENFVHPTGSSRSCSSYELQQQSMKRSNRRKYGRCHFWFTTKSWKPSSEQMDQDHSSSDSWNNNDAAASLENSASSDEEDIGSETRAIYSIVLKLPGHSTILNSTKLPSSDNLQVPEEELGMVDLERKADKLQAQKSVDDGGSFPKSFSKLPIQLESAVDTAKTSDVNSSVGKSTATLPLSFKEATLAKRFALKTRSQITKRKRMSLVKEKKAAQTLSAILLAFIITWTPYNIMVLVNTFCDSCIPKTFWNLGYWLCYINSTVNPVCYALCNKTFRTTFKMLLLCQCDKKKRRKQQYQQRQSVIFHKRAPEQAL

O=C(OCC1CN2CCC1CC2)N1CCc2ccccc2[C@@H]1c1ccc(F)cc1 (some centres undefined)
EC50 [1]: 1990 nM

O=C(OC1CN2CCC1CC2)N1CCc2ccccc2[C@@H]1c1ccc(OC(F)(F)F)cc1 (some centres undefined)
EC50 [1]: 2600 nM

O=S(=O)(CC1CN2CCC1CC2)N1CCc2ccccc2[C@@H]1c1ccc(F)cc1 (some centres undefined)
EC50 [1]: 1700 nM

CS(=O)(=O)c1ccc([C@H]2c3ccccc3CCN2C(=O)OC2CN3CCC2CC3)cc1 (some centres undefined)
EC50 [1]: > 10000 nM

O=S(=O)(NC1CN2CCC1CC2)N1CCc2ccccc2[C@@H]1c1ccc(F)cc1 (some centres undefined)
EC50 [1]: > 10000 nM

O=C(OC1CN2CCC1CC2)N1CCc2ccccc2[C@@H]1c1ccc(F)cc1 (some centres undefined)
solubility [2]: 1990 µM (≈ 757 µg/mL) | fraction unbound [3]: 0.008 | bioavailability [4]: 16% | half-life [5]: 10 min | EC50 [1]: 257 nM | Cmax [6]: 28 nM | Vd [7]: 4.91 L/kg | fraction unbound [8]: 0.02 | clearance [9]: 44.2 mL/min/kg | half-life [10]: 1.9 min | Kp uu at 8 h [11]: 1.08 | half-life [12]: > 240 min | bioavailability [13]: 64% | fraction unbound [14]: 0.06 | fraction unbound [15]: 0.008 | Papp A→B [16]: 7.59 ×10⁻⁶ cm/s | Kp uu at 8 h [17]: 0.26 | Vd [18]: 4.65 L/kg | fraction unbound [19]: 0.086 | half-life [20]: 29 min | half-life [21]: 2.1 min | CLH [22]: 0.0698 mL/min/kg | Cmax [23]: 37 nM | IC50 [24]: 17000 nM | clearance [25]: 198 mL/min/kg | half-life [26]: 2.1 min | half-life [27]: 4.1 min | CLH [28]: 0.023 mL/min/kg

O=C(OC1CN2CCC1CC2)N1CCc2ccccc2[C@@H]1c1cccc(F)c1 (some centres undefined)
EC50 [1]: 3550 nM

O=C(OC1CN2CCC1CC2)N1CCc2ccccc2[C@@H]1c1cccc(F)c1F (some centres undefined)
EC50 [1]: 1110 nM

O=C(NC1CN2CCC1CC2)N1CCc2ccccc2[C@@H]1c1ccc(F)cc1 (some centres undefined)
solubility [2]: 5960 µM (≈ 2260 µg/mL) | EC50 [1]: 265 nM | Papp A→B [16]: 0.95 ×10⁻⁶ cm/s | IC50 [24]: 10000 nM

O=C(OCCC12CCN(CC1)CC2)N1CCc2ccccc2[C@@H]1c1ccc(F)cc1
EC50 [1]: > 10000 nM

O=C(NC1CN2CCC1CC2)C(=O)N1CCc2ccccc2[C@@H]1c1ccc(F)cc1 (some centres undefined)
EC50 [1]: 1610 nM

O=C(COC1CN2CCC1CC2)N1CCc2ccccc2[C@@H]1c1ccc(F)cc1 (some centres undefined)
EC50 [1]: 811 nM

O=C(OC1CN2CCC1CC2)N1CCc2ccccc2[C@@H]1c1ccc(Cl)cc1 (some centres undefined)
EC50 [1]: 339 nM | IC50 [24]: 1480 nM

O=C(OC1CN2CCC1CC2)N1CCc2ccccc2[C@@H]1c1ccc(OC2CC2)cc1 (some centres undefined)
EC50 [1]: > 10000 nM

CC1(C)C(OC(=O)N2CCc3ccccc3[C@@H]2c2ccc(F)cc2)C2CCN1CC2 (some centres undefined)
EC50 [1]: 574 nM

O=C(OC1CN2CCC1CC2)N1CCc2ccccc2[C@@H]1c1ccc(F)c(F)c1 (some centres undefined)
EC50 [1]: 2030 nM | IC50 [24]: 10000 nM

CN(C(=O)N1CCc2ccccc2[C@@H]1c1ccc(F)cc1)C1CN2CCC1CC2 (some centres undefined)
EC50 [1]: 1030 nM

C[C@]1(c2ccc(F)cc2)c2ccccc2CCN1C(=O)OC1CN2CCC1CC2 (some centres undefined)
EC50 [1]: 3460 nM

Fc1ccc([C@@H]2c3ccccc3CCN2CCC2CN3CCC2CC3)cc1 (some centres undefined)
EC50 [1]: > 10000 nM

O=C(OCC12CCN(CC1)CC2)N1CCc2ccccc2[C@H]1c1ccc(F)cc1
solubility [2]: 2670 µM (≈ 1050 µg/mL) | fraction unbound [3]: 0.008 | Kp uu at 8 h [29]: 0.33 | bioavailability [4]: 16% | half-life [5]: 22 min | EC50 [1]: 146 nM | Cmax [6]: 30 nM | fraction unbound [30]: 0.176 | Vd [7]: 7.23 L/kg | half-life [31]: 6.4 min | fraction unbound [8]: 0.048 | clearance [9]: 51.8 mL/min/kg | half-life [10]: 2.2 min | Kp uu at 8 h [11]: 0.09 | half-life [12]: 198 min | bioavailability [32]: 42% | half-life [33]: 6.8 min | bioavailability [13]: 41% | fraction unbound [14]: 0.086 | Cmax [34]: 32 nM | fraction unbound [15]: 0.007 | Papp A→B [16]: 3.01 ×10⁻⁶ cm/s | Kp uu at 8 h [17]: 0.4 | Vd [18]: 16.2 L/kg | fraction unbound [19]: 0.096 | half-life [20]: 17 min | half-life [21]: 2.2 min | clearance [35]: 20.7 mL/min/kg | CLH [22]: 0.0318 mL/min/kg | Cmax [23]: 17 nM | clearance [25]: 102 mL/min/kg | half-life [26]: 5.2 min | Vd [36]: 9.6 L/kg | half-life [27]: 2.9 min | CLH [28]: 0.0397 mL/min/kg

O=C(OC1CN2CCC1CC2)N1CCc2ccccc2[C@H]1c1ccc(F)cc1 (some centres undefined)
EC50 [1]: > 10000 nM

COc1ccc([C@H]2c3ccccc3CCN2C(=O)OC2CN3CCC2CC3)cc1 (some centres undefined)
EC50 [1]: 2870 nM

O=C(CC1CN2CCC1CC2)N1CCc2ccccc2[C@@H]1c1ccc(F)cc1 (some centres undefined)
EC50 [1]: 222 nM | Papp A→B [16]: 2.68 ×10⁻⁶ cm/s | IC50 [24]: 30000 nM

O=C(OC1CN2CCC1CC2)N1CCc2ccccc2[C@@H]1c1ccc(F)cc1F (some centres undefined)
EC50 [1]: 247 nM | IC50 [24]: 9400 nM

O=C(C(O)C1CN2CCC1CC2)N1CCc2ccccc2[C@@H]1c1ccc(F)cc1 (some centres undefined)
EC50 [1]: 895 nM

O=C(O[C@@H]1CN2CCC1CC2)N1CCc2ccccc2[C@@H]1c1ccccc1
EC50 [1]: 1830 nM | IC50 [24]: 733 nM

O=C(OC1CN2CCC1(F)CC2)N1CCc2ccccc2C1c1ccc(F)cc1 (single isomer, unassigned)
EC50 [1]: 1250 nM

O=C(O[C@H]1CN2CCC1CC2)N1CCc2ccccc2[C@@H]1c1ccccc1 [SOLIFENACIN]
EC50 [1]: 1300 nM | IC50 [24]: 24 nM
